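Results reflect a 48-hour exposure of cells in 96-well plates to compound at five concentrations. Abbreviation: GI50, concentration required for 50% inhibition of growth.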 Calls of active or inactive are those of the source. No stated cut-off is given here; in the data, active = GI50 up to about 1.1 µM and inactive = higher.
How the values were obtained:
Assay in all cases: inhibition of tumour cell growth, NCI panel, 48 h
A498 = test system: A498
A549 = test system: A549
BT-549 = test system: BT-549
CAKI-1 = test system: CAKI-1
CCRF-CEM = test system: CCRF-CEM
COLO 205 = test system: COLO 205
DU-145 = test system: DU-145
EKVX = test system: EKVX
HCC 2998 = test system: HCC 2998
HCT-116 = test system: HCT-116
HCT-15 = test system: HCT-15
HL-60 = test system: HL-60
HOP-62 = test system: HOP-62
HOP-92 = test system: HOP-92
HT-29 = test system: HT-29
Hs-578T = test system: Hs-578T
IGROV-1 = test system: IGROV-1
K562 = test system: K562
LOX IMVI = test system: LOX IMVI
M14 = test system: M14
MCF7 = test system: MCF7
MDA-MB-231 = test system: MDA-MB-231
MDA-MB-435 = test system: MDA-MB-435
MDA-N = test system: MDA-N
MOLT-4 = test system: MOLT-4
Malme-3M = test system: Malme-3M
NCI-H226 = test system: NCI-H226
NCI-H23 = test system: NCI-H23
NCI-H460 = test system: NCI-H460
NCI/ADR-RES = test system: NCI/ADR-RES
OVCAR-3 = test system: OVCAR-3
OVCAR-4 = test system: OVCAR-4
OVCAR-5 = test system: OVCAR-5
OVCAR-8 = test system: OVCAR-8
PC-3 = test system: PC-3
RXF 393 = test system: RXF 393
SF-268 = test system: SF-268
SF-295 = test system: SF-295
SF-539 = test system: SF-539
SK-MEL-28 = test system: SK-MEL-28
SK-MEL-2 = test system: SK-MEL-2
SK-MEL-5 = test system: SK-MEL-5
SK-OV-3 = test system: SK-OV-3
SN12C = test system: SN12C
SNB-75 = test system: SNB-75
SR = test system: SR
SW-620 = test system: SW-620
T47D = test system: T47D
TK-10 = test system: TK-10
U-251 = test system: U-251
UACC-257 = test system: UACC-257
UACC-62 = test system: UACC-62
UO-31 = test system: UO-31
786-0 = test system: 786-0
ACHN = test system: ACHN
KM12 = test system: KM12
NCI-H522 = test system: NCI-H522
RPMI-8226 = test system: RPMI-8226
SNB-19 = test system: SNB-19

Compound: O=c1c(C(c2ccc(C(c3c(O)oc4cc(O)ccc4c3=O)c3c(O)oc4cc(O)ccc4c3=O)cc2)c2c(O)oc3cc(O)ccc3c2=O)c(O)oc2cc(O)ccc12
- GI50 (A498): > 100 µM (inactive)
- GI50 (A549): > 100 µM (inactive)
- GI50 (BT-549): > 100 µM (inactive)
- GI50 (CAKI-1): > 100 µM (inactive)
- GI50 (CCRF-CEM): 53.2 µM (inactive)
- GI50 (COLO 205): 53.3 µM (inactive)
- GI50 (DU-145): > 100 µM (inactive)
- GI50 (EKVX): > 100 µM (inactive)
- GI50 (HCC 2998): > 100 µM (inactive)
- GI50 (HCT-116): > 100 µM (inactive)
- GI50 (HCT-15): > 100 µM
- GI50 (HL-60): 44.6 µM (inactive)
- GI50 (HOP-62): > 100 µM (inactive)
- GI50 (HOP-92): > 100 µM (inactive)
- GI50 (HT-29): > 100 µM (inactive)
- GI50 (Hs-578T): > 100 µM (inactive)
- GI50 (IGROV-1): > 100 µM (inactive)
- GI50 (K562): > 100 µM (inactive)
- GI50 (LOX IMVI): > 100 µM (inactive)
- GI50 (M14): > 100 µM (inactive)
- GI50 (MCF7): > 100 µM (inactive)
- GI50 (MDA-MB-231): > 100 µM (inactive)
- GI50 (MDA-MB-435): > 100 µM (inactive)
- GI50 (MDA-N): > 100 µM (inactive)
- GI50 (MOLT-4): > 100 µM (inactive)
- GI50 (Malme-3M): > 100 µM (inactive)
- GI50 (NCI-H226): > 100 µM (inactive)
- GI50 (NCI-H23): > 100 µM (inactive)
- GI50 (NCI-H460): > 100 µM (inactive)
- GI50 (NCI/ADR-RES): > 100 µM (inactive)
- GI50 (OVCAR-3): > 100 µM (inactive)
- GI50 (OVCAR-4): 93.1 µM (inactive)
- GI50 (OVCAR-5): > 100 µM (inactive)
- GI50 (OVCAR-8): > 100 µM (inactive)
- GI50 (PC-3): > 100 µM (inactive)
- GI50 (RXF 393): > 100 µM (inactive)
- GI50 (SF-268): > 100 µM (inactive)
- GI50 (SF-295): > 100 µM (inactive)
- GI50 (SF-539): > 100 µM (inactive)
- GI50 (SK-MEL-28): > 100 µM (inactive)
- GI50 (SK-MEL-2): > 100 µM (inactive)
- GI50 (SK-MEL-5): 48.6 µM (inactive)
- GI50 (SK-OV-3): > 100 µM (inactive)
- GI50 (SN12C): 93.1 µM (inactive)
- GI50 (SNB-75): > 100 µM (inactive)
- GI50 (SR): > 100 µM (inactive)
- GI50 (SW-620): > 100 µM (inactive)
- GI50 (T47D): > 100 µM (inactive)
- GI50 (TK-10): > 100 µM (inactive)
- GI50 (U-251): > 100 µM (inactive)
- GI50 (UACC-257): > 100 µM (inactive)
- GI50 (UACC-62): > 100 µM (inactive)
- GI50 (UO-31): > 100 µM (inactive)

Compound: C1=N/CCNCCNCC/N=C/c2ccccc2OCc2cccc(n2)COc2ccccc2/1
- GI50 (786-0): 64.6 µM (inactive)
- GI50 (A498): > 100 µM (inactive)
- GI50 (A549): > 100 µM (inactive)
- GI50 (ACHN): 28.6 µM (inactive)
- GI50 (BT-549): 38.5 µM (inactive)
- GI50 (CAKI-1): > 100 µM (inactive)
- GI50 (CCRF-CEM): 16.2 µM (inactive)
- GI50 (COLO 205): > 100 µM (inactive)
- GI50 (DU-145): 56.9 µM (inactive)
- GI50 (EKVX): > 100 µM (inactive)
- GI50 (HCT-116): 61 µM (inactive)
- GI50 (HCT-15): 45.1 µM
- GI50 (HL-60): 28 µM (inactive)
- GI50 (HOP-62): 35.2 µM (inactive)
- GI50 (HOP-92): 71.4 µM (inactive)
- GI50 (HT-29): 25.6 µM (inactive)
- GI50 (Hs-578T): 55.3 µM (inactive)
- GI50 (IGROV-1): 52.6 µM (inactive)
- GI50 (K562): 24.7 µM (inactive)
- GI50 (KM12): 48.5 µM (inactive)
- GI50 (M14): 28.7 µM (inactive)
- GI50 (MCF7): 21.2 µM (inactive)
- GI50 (MDA-MB-231): 57.9 µM (inactive)
- GI50 (MDA-MB-435): 11.3 µM (inactive)
- GI50 (MDA-N): 15.2 µM (inactive)
- GI50 (MOLT-4): 27.4 µM (inactive)
- GI50 (Malme-3M): 61.8 µM (inactive)
- GI50 (NCI-H226): 66.8 µM (inactive)
- GI50 (NCI-H23): 86.3 µM (inactive)
- GI50 (NCI-H460): 34.4 µM (inactive)
- GI50 (NCI-H522): 37.8 µM (inactive)
- GI50 (NCI/ADR-RES): 23.1 µM (inactive)
- GI50 (OVCAR-3): 30.1 µM (inactive)
- GI50 (OVCAR-4): 47 µM (inactive)
- GI50 (OVCAR-5): > 100 µM (inactive)
- GI50 (OVCAR-8): 28.6 µM (inactive)
- GI50 (PC-3): 34 µM (inactive)
- GI50 (RPMI-8226): 28.4 µM (inactive)
- GI50 (RXF 393): 30.3 µM (inactive)
- GI50 (SF-268): 47.2 µM (inactive)
- GI50 (SF-295): 26.4 µM (inactive)
- GI50 (SF-539): 26.1 µM (inactive)
- GI50 (SK-MEL-28): > 100 µM (inactive)
- GI50 (SK-MEL-2): > 100 µM (inactive)
- GI50 (SK-MEL-5): 39.1 µM (inactive)
- GI50 (SK-OV-3): > 100 µM (inactive)
- GI50 (SN12C): 43.8 µM (inactive)
- GI50 (SNB-19): 52.5 µM (inactive)
- GI50 (SNB-75): 67.9 µM (inactive)
- GI50 (SR): 19.5 µM (inactive)
- GI50 (SW-620): 36.2 µM (inactive)
- GI50 (T47D): 57.4 µM (inactive)
- GI50 (U-251): 26.7 µM (inactive)
- GI50 (UACC-257): 53.7 µM (inactive)
- GI50 (UACC-62): 79.1 µM (inactive)
- GI50 (UO-31): 72.8 µM (inactive)

Source: ChEMBL document CHEMBL1201862, “PubChem BioAssay data set” (2004)
